# Assay results reported in US20260125357A1, “LACTATE ENHANCING COMPOUNDS AND USES THEREOF” (GLIAPHARM SA, priority 2022, published 2026).
# Tests used:
# primary astrocytes = experiment: MTT mitochondrial activity assay in primary astrocytes; type: cell-based, mouse; details: different concentrations, after 1.5 h or 24 h
# Method: Primary cultures of cerebrocortical astrocytes were obtained from 1 to 2-day-old OF1 mouse pups (Charles River Laboratories). Briefly, cortices were isolated and minced in small pieces under a dissecting microscope. The cells were incubated for 30 min at 37° C. in a solution containing 20 U/ml papain, 1 mM L-cysteine and 10 kU/ml DNase I. After dissociation, papain activity was stopped by the addition of fetal calf serum (FCS). Single-cell suspension was then obtained by mechanical dissociation, which consisted in cells trituration in a DMEM D7777 medium supplemented with 44 mm NaHCO3, 10 ml/L antibiotic/antimycotic solution and 10% FCS. The cells were seeded at an average density of ˜10′000 cells/cm^2 on poly-D-lysine coated 96- or 12-well culture plates, depending on their use, and grown in DMEM D7777 medium supplemented with 44 mm NaHCO3, 10 ml/L antibiotic/antimycotic solution and 10% FCS at 37° C. in a humidified atmosphere containing 5% CO2/95% air. Culture medium was renewed twice a week. Cells were stimulated and harvested between DIV14 and DIV17, when confluence and cell growth were optimal.
# To monitor mitochondrial activity in astrocytes, which is linked to the metabolic process of glycolysis and production of lactate, astrocytes in 96-well plates were stimulated for 24 h (37° C. 5% CO2/95% air) with the compounds of the invention ranging from 10 nM to 10 μM.
# After stimulation, 5 mg/ml thiazol blue tetrazolium bromide (MTT) in D5030 medium complemented with 5 mM D-glucose and 44 mM sodium bicarbonate (pH 7.2) was added to each well, and cells were incubated for 4 h at 37° C. (5% CO2). The medium was then removed and the amount of reduced MTT, i.e formazan, solubilized in DMSO (50 μl/well) was determined using a spectrophotometer (absorbance of 570 nm).
# The mitochondrial activity was monitored in MTT colorimetric assay in primary astrocytes treated with Compounds (1), (2), (3), (4) (5), (9) and (10) at different concentrations after 1.5 h (FIG. 2 A, B, D, E, F, C, H, respectively) or 24 h (FIG. 2 H, I, K, L, M, J, N, respectively).
# [1] = test system: neurons in astrocyte-neuron co-culture; experiment: MTT mitochondrial activity in neurons from astrocyte-neuron co-cultures; type: cell-based, mouse; details: 10 μM, 2 hours
# Method: Primary mouse neuronal cultures were obtained from 18-day OF1 mouse embryos (Charles River Laboratories). Briefly, cortices were isolated and minced in small pieces under a dissecting microscope. The cells were incubated for 30 min at 37° C. in a solution containing 20 U/ml papain, 1 mM L-cysteine and 10 kU/ml DNase I. After dissociation, papain activity was stopped by the addition of fetal calf serum (FCS). Single-cell suspension was then obtained by mechanical dissociation, which consisted in cells trituration in a Neurobasal+B-27+Glutamax medium. The cells were seeded at an average density of ˜1.5×10^5 cells/cm^2 on poly-D-lysine coated 12-well culture plates and grown in Neurobasal medium supplemented with B-27 and Glutamax at 37° C. in a humidified atmosphere containing 5% CO2/95% air. Neurons were used at DIV10. […]
# Neuron pure culture or astrocyte-neuron co-cultures were treated for 2 hours with compound (2) at 10 μM in a solution composed of Neurobasal complemented with B-27 and Glutamax, as well as 0.25 mg/ml thiazol blue tetrazolium bromide (MTT). […] After stimulation, empty coverslips (neuron pure cultures) or astrocytes on coverslips (astrocyte-neuron co-cultures) were separated from neurons, medium was removed and the amount of reduced MTT, i.e formazan, solubilized in DMSO (50 μl/well) was determined using a spectrophotometer (absorbance of 570 nm).
# C57Bl/6J wild-type mice = experiment: 18F-FDG PET glucose uptake in the brain; type: in vivo, mouse; details: gavage, 30 mg/kg, vs Vehicle
# Method: All experiments were carried out in strict accordance with the Swiss Federal Guidelines for Animal Experimentation and were approved by the Cantonal Veterinary Office for Animal Experimentation (Canton of Geneva, Switzerland). Adult male C57Bl/6J wild-type mice weighting 18-28 g (8 to 12 weeks of age) were used (Charles River Laboratories). Animals were housed in groups of 3-5 in polypropylene cages (30×40×15 cm) with wire mesh top in a temperature (22±2° C.) and humidity (55±15%) controlled environment on a 12-hour light cycle (07.00-19.00 h lights on), except after surgeries when animal were housed individually. The samples (Vehicle or compounds of the invention) were administered per os (gavage) in a solution made of water supplemented with 0.4% hydroxypropyl methylcellulose (HPMC) Methocel 4 KM (w/v) and 0.25% Tween-20 (v/v), as previously described (Thackaberry et al., 2010, Toxicol Sci., 117(2):485-92). Concentrations of the compounds tested ranged from 3 to 30 mg/kg.
# ^18F-FDG PET Glucose uptake in the brain was measured in vivo using 18F-fluorodeoxyglucose (FDG) with positron emission tomography (PET) Scan. Mice were fasted for 12 hours before the scans PET/CT measurements. Compounds of the invention were administered by gavage, followed by an intraperitoneal injection of 5 MBq of ^18F-FDG in 300 μL of saline. […]
smiles,measurement,setting,value
"COc1cc2ccnc(Nc3ccc(S(C)(=O)=O)cc3)c2cc1OC [Compound 2, 6,7-dimethoxy-N-(4-methylsulfonylphenyl)isoquinolin-1-amine]",mitochondrial activity (MTT colorimetric assay),primary astrocytes,none of the selected compounds had direct effect on mitochondrial activity
same,mitochondrial activity of neurons (MTT),[1],enhances mitochondrial activity of neurons in astrocyte-neuron co-culture
same,glucose uptake in the brain (18F-FDG in the whole brain),C57Bl/6J wild-type mice,increases glucose uptake in the brain
